Experiments:
[1] = system: LAD-ligated male C57BI/6 mice (myocardial infarction); assay: Cardiac function after coronary artery (LAD) ligation, echocardiography; format: in vivo, mouse
Description: Adult male C57BI/6 mice, 3 months old, were purchased from Jackson Laboratories and acclimated for 3 or more days in standard housing. All mice underwent twice daily intra-gastric administration of physiologic saline for 7 days pre-operatively (acclimation period). They also underwent standard B- and M-mode echocardiographic (ECHO) imaging (VisualSonics Vevo 2100) of the left heart under conscious restraint, 1-5 days prior to surgery.
Under ketamine/xylazine anesthesia, mice were intubated and ventilated, then incised through the left thoracic wall between the 3rd and 4th ribs to expose the heart. For ligation of the left anterior descending coronary artery (LAD), an 8-0 nylon suture was inserted under microscopic view (Wild/Leica operating microscope), placing and tying the ligature at a point 1 mm distal to the point where the artery emerges from the edge of the left atrium. Confirmation was provided by clear blanching of the downstream ventricle wall. Control sham-treated mice underwent needle and 8-0 suture passage under the coronary artery but with suture removal without ligation. The wound was closed with 6-0 suture in two layers (muscle and skin, respectively) and mice were recovered on a warming blanket. They received buprenorphine intraoperatively and twice daily postoperatively for 48 hours, by subcutaneous injection (50 ug/kg body weight).
A total of 48 mice entered the study. Eight mice underwent sham surgery, and these mice received vehicle treatment after surgery. 40 mice underwent LAD ligation, with 20 in each treatment group. Treatment was by oral gavage (intra-gastric administration) at 10 mL/kg body weight, twice daily (7-9 am and 4-6 pm), starting 1-2 hours after surgery and continuing until study termination. Treatment was either with EXAMPLE 22 at a concentration of 3 mg/mL (30 mg/kg) or vehicle for the test agent.
Echocardiography was done under brief, conscious restraint using a VisualSonics Vevo 2100 ultrasound machine, pre-operatively and at 2 and 4 weeks postoperatively. Standard B-mode and M-mode ultrasound imaging was captured at each imaging session. Echocardiographic images were analyzed for left ventricular function, measuring the interventricular septal thickness, internal ventricular cavity dimension, and posterior wall thickness at both diastole and systole from M-mode images at the level of the papillary muscles. The left ventricle ejection fraction and fractional shortening were calculated from these values:
Ejection Fraction (%)=100×[LVIDd^3−LVIDs^3]/LVIDd^3Fractional Shortening (%)=100×[LVIDd−LVIDs]/LVIDd, • where LVID=left ventricle inner diameter (internal ventricular cavity dimension), d=diastole, s=systole
After the 4-week ECHO imaging, mice were anesthetized and a terminal blood draw was taken from the abdominal aorta into 3.8% citrate (9:1), and the plasma was obtained by centrifugation and frozen. Mice were then euthanized (anesthesia overdose followed by cervical dislocation) and the hearts were weighed and the area of infarction was visually measured with t ruler for cranial-caudal and for lateral axes lengths of the approximately oval infarction zone (ligated hearts only). The hearts, and both kidneys, were then immersion-fixed in neutral-buffered formalin for subsequent histopathological evaluation. Plasma, kidney, and heart specimens were returned to Study Sponsor for further evaluation. The time between the last drug dosing and the blood draw was recorded, for future dose-response evaluation by Study Sponsor.
Summary statistics by “treatment” were provided for the change from baseline to week 2 and change from baseline to week 4 where baseline was defined as the pre-echos time-point. For each parameter, the mean “treatment” difference between “Example 22” and “Vehicle” was analyzed using a 2-sample t-test. The analysis was conducted using SAS Version 9.4 via PROC TTEST under unequal variances for the “treatments” using the Satterthwaite method. […]

in vitro = details: mouse, pH 7.4
[2] = Ex 22 vs Vehicle, LAD-ligated mice, 30 mg/kg p.o. twice daily
[3] = LAD-ligated mice, 30 mg/kg p.o. twice daily

O=C(O)C[C@H](CCN1CCCC(F)(F)C1)NC(=O)c1cc(-c2ccccc2C(F)(F)F)n(-c2nccs2)n1 [Example 22, (3S)-5-(3,3-difluoropiperidin-1-yl)-3-{[1-(1,3-thiazol-2-yl)-5-[2-(trifluoromethyl)phenyl]-1H-pyrazol-3-yl]formamido}pentanoic acid]
deaths in ligated group ([1]; 30 mg/kg p.o. twice daily, deaths between 3 and 11 days postoperatively, vehicle 7/20): 2/20 | ejection fraction ([1]; 4 weeks post-treatment): Statistically significant improvement | EF, Change from baseline, Week 2, Difference [1, 2]: 4.81% | EF, Change from baseline, Week 4, Difference [1, 2]: 10.70% | FS, Change from baseline, Week 2, Difference [1, 2]: 4.21% | FS, Change from baseline, Week 4, Difference [1, 2]: 7.17% | Heart Rate, Change from baseline, Week 2, Difference [1, 2]: 11.43 | Heart Rate, Change from baseline, Week 4, Difference [1, 2]: −6.42 | IVS d, Change from baseline, Week 2, Difference [1, 2]: 0.40 | IVS d, Change from baseline, Week 4, Difference [1, 2]: 0.49 | IVS s, Change from baseline, Week 2, Difference [1, 2]: 0.47 | IVS s, Change from baseline, Week 4, Difference [1, 2]: 0.56 | LV Mass corrected, Change from baseline, Week 2, Difference [1, 2]: 18.64 | LV Mass corrected, Change from baseline, Week 4, Difference [1, 2]: 7.38 | LV Mass, Change from baseline, Week 2, Difference [1, 2]: 23.30 | LV Mass, Change from baseline, Week 4, Difference [1, 2]: 9.23 | LV VoI d, Change from baseline, Week 2, Difference [1, 2]: −5.56 | LV VoI d, Change from baseline, Week 4, Difference [1, 2]: −29.03 | LV VoI s, Change from baseline, Week 2, Difference [1, 2]: −1.67 | LV VoI s, Change from baseline, Week 4, Difference [1, 2]: −22.79 | LVID d, Change from baseline, Week 2, Difference [1, 2]: −0.23 | LVID d, Change from baseline, Week 4, Difference [1, 2]: −0.70 | LVID s, Change from baseline 2, Week 2, Difference [1, 2]: −0.22 | LVID s, Change from baseline, Week 4, Difference [1, 2]: −0.74 | LVPW d, Change from baseline, Week 2, Difference [1, 2]: 0.03 | LVPW d, Change from baseline, Week 4, Difference [1, 2]: 0.20 | LVPW s, Change from baseline, Week 2, Difference [1, 2]: 0.09 | LVPW s, Change from baseline, Week 4, Difference [1, 2]: 0.38 | Weight, Change from baseline, Week 2, Difference [1, 2]: 0.21 | Weight, Change from baseline, Week 4, Difference [1, 2]: 0.26 | EF, Change from baseline, Week 2, Mean [1, 3]: −34.17% | EF, Change from baseline, Week 2, Median [1, 3]: −36.15% | EF, Change from baseline, Week 4, Mean [1, 3]: −38.46% | EF, Change from baseline, Week 4, Median [1, 3]: −37.79% | FS, Change from baseline, Week 2, Mean [1, 3]: −25.71% | FS, Change from baseline, Week 2, Median [1, 3]: −27.07% | FS, Change from baseline, Week 4, Mean [1, 3]: −28.24% | FS, Change from baseline, Week 4, Median [1, 3]: −28.24% | Heart Rate, Change from baseline, Week 2, Mean [1, 3]: 20.04 | Heart Rate, Change from baseline, Week 2, Median [1, 3]: 40.66 | Heart Rate, Change from baseline, Week 4, Mean [1, 3]: 4.65 | Heart Rate, Change from baseline, Week 4, Median [1, 3]: 11.40 | IVS d, Change from baseline, Week 2, Mean [1, 3]: −0.03 | IVS d, Change from baseline, Week 2, Median [1, 3]: 0.02 | IVS d, Change from baseline, Week 4, Mean [1, 3]: 0.10 | IVS d, Change from baseline, Week 4, Median [1, 3]: 0.12 | IVS s, Change from baseline, Week 2, Mean [1, 3]: −0.17 | IVS s, Change from baseline, Week 2, Median [1, 3]: −0.24 | IVS s, Change from baseline, Week 4, Mean [1, 3]: −0.02 | IVS s, Change from baseline, Week 4, Median [1, 3]: 0.11 | LV Mass corrected, Change from baseline, Week 2, Mean [1, 3]: 54.81 | LV Mass corrected, Change from baseline, Week 2, Median [1, 3]: 63.28 | LV Mass corrected, Change from baseline, Week 4, Mean [1, 3]: 66.14 | LV Mass corrected, Change from baseline, Week 4, Median [1, 3]: 66.57 | LV Mass, Change from baseline, Week 2, Mean [1, 3]: 68.51 | LV Mass, Change from baseline, Week 2, Median [1, 3]: 79.11 | LV Mass, Change from baseline, Week 4, Mean [1, 3]: 82.67 | LV Mass, Change from baseline, Week 4, Median [1, 3]: 83.21 | LV VoI d, Change from baseline, Week 2, Mean [1, 3]: 39.76 | LV VoI d, Change from baseline, Week 2, Median [1, 3]: 38.79 | LV VoI d, Change from baseline, Week 4, Mean [1, 3]: 53.15 | LV VoI d, Change from baseline, Week 4, Median [1, 3]: 51.79 | LV VoI s, Change from baseline, Week 2, Mean [1, 3]: 33.74 | LV VoI s, Change from baseline, Week 2, Median [1, 3]: 33.90 | LV VoI s, Change from baseline, Week 4, Mean [1, 3]: 45.96 | LV VoI s, Change from baseline, Week 4, Median [1, 3]: 39.02 | LVID d, Change from baseline, Week 2, Mean [1, 3]: 1.11 | LVID d, Change from baseline, Week 2, Median [1, 3]: 1.09 | LVID d, Change from baseline, Week 4, Mean [1, 3]: 1.36 | LVID d, Change from baseline, Week 4, Median [1, 3]: 1.45 | LVID s, Change from baseline 2, Week 2, Mean [1, 3]: 1.62 | LVID s, Change from baseline 2, Week 2, Median [1, 3]: 1.69 | LVID s, Change from baseline, Week 4, Mean [1, 3]: 1.93 | LVID s, Change from baseline, Week 4, Median [1, 3]: 1.92 | LVPW d, Change from baseline, Week 2, Mean [1, 3]: 0.09 | LVPW d, Change from baseline, Week 2, Median [1, 3]: 0.13 | LVPW d, Change from baseline, Week 4, Mean [1, 3]: −0.00 | LVPW d, Change from baseline, Week 4, Median [1, 3]: 0.00 | LVPW s, Change from baseline, Week 2, Mean [1, 3]: −0.29 | LVPW s, Change from baseline, Week 2, Median [1, 3]: −0.30 | LVPW s, Change from baseline, Week 4, Mean [1, 3]: −0.39 | LVPW s, Change from baseline, Week 4, Median [1, 3]: −0.35 | Weight, Change from baseline, Week 2, Mean [1, 3]: −0.13 | Weight, Change from baseline, Week 2, Median [1, 3]: −0.30 | Weight, Change from baseline, Week 4, Mean [1, 3]: 0.89 | Weight, Change from baseline, Week 4, Median [1, 3]: 0.70 | cardiac function after MI ([1]; compared to vehicle treated animals, 30 mg/kg p.o. twice daily): improved cardiac fraction | recovery at 6 h, 1 μM (in vitro): 92.4%
